Columns and labels:
ETA = biological target: T1, ETA (Sus scrofa, UniProt Q29010); test: Endothelin binding inhibition experiment, 125I-endothelin-1 binding, ETA, membranes from smooth muscles of porcine thoracic aorta; conditions: 125I-endothelin-1 2×10^-11 M, 2 hours at 25° C., pH 7.4
T1 construct: crude receptor membrane samples (ETA) from smooth muscles of porcine thoracic aorta; from tissue; host or cells: porcine thoracic aorta smooth muscle, endothelium removed; crude membranes
T1 sequence (Q29010 21-427): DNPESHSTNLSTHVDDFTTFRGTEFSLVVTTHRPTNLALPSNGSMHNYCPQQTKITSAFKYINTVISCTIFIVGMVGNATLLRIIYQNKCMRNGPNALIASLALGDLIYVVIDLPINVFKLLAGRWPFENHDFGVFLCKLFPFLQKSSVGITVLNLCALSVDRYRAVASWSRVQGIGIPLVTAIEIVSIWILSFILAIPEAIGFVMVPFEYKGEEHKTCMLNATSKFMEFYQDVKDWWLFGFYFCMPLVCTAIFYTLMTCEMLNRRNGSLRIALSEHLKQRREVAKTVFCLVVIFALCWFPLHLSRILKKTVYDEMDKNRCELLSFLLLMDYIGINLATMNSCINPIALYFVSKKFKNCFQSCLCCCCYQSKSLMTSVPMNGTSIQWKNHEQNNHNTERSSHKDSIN
Experimental: (§1) Endothelin binding inhibition experiment
Preparation of crude receptor membrane samples (ETA) from smooth muscles of porcine thoracic aorta:
Porcine thoracic aorta which was separated from the fatty tissue and then was removed endothelium with gauze was minced, and then homogenized in three times the volume of Tris-HCl buffer (pH 7.4) (buffer A) containing 0.25M sucrose, 3 mM ethylenediaminetetraacetic acid, 5 μg/ml of aprotinin, 10 μg/ml of pepstatin A, 10 μg/ml of leupeptin, and 0.1 μM p-amidinophenylmethanesulfonyl fluoride. After centrifugation for 30 minutes at 1,000×g, the supernatant was further centrifuged for 30 minutes at 100,000×g. The pellets were suspended in buffer A, and recentrifuged for 30 minutes at 100,000×g. The pellets were suspended in buffer A and the suspension was stored at -80° C. ^125 I-Endothelin-1 binding assay:
The thus-obtained membrane sample (1 μl) was incubated together with ^125 I-endothelin-1 (2×10^-11 M) and various concentrations of the compounds, for 2 hours at 25° C., in 250 μl in total volume of 50 mM Tris-HCl buffer (pH 7.4) containing 0.5% bovine serum albumin. The incubated mixture was filtered by use of HVPP filters (pore size 0.45 μm, product of Milipore). The filters were washed with cold buffer A four times, and then measured with a gamma-ray counter (Aroka Autowell Gamma System ARC-251). Preparation of crude receptor membrane samples (ETB) from rat brain and assay of ^125 I endothelin-1: […]

ETB = biological target: T2, ETB (Rattus norvegicus, UniProt P21451); test: Endothelin binding inhibition experiment, 125I-endothelin-1 binding, ETB, membranes from rat brain; conditions: 125I-endothelin-1 2×10^-11 M, 2 hours at 25° C., pH 7.4
T2 construct: Rat brain tissue was minced, and a crude receptor membrane sample was prepared; from tissue; host or cells: rat brain; crude membranes
T2 sequence (P21451 27-442): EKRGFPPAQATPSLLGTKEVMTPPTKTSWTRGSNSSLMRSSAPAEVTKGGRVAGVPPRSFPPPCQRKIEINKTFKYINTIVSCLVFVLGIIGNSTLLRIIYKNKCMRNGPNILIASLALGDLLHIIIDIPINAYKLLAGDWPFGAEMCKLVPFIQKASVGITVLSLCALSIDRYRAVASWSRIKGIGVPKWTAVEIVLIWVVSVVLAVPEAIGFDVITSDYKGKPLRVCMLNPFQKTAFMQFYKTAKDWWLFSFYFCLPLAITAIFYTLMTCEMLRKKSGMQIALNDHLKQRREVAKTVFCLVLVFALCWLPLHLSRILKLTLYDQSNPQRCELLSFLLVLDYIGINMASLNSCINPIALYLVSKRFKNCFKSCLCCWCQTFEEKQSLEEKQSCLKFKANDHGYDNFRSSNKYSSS
Experimental: as §1
The thus-obtained membrane sample (1 μl) was incubated together with ^125 I-endothelin-1 (2×10^-11 M) and various concentrations of the compounds, for 2 hours at 25° C., in 250 μl in total volume of 50 mM Tris-HCl buffer (pH 7.4) containing 0.5% bovine serum albumin. The incubated mixture was filtered by use of HVPP filters (pore size 0.45 μm, product of Milipore). The filters were washed with cold buffer A four times, and then measured with a gamma-ray counter (Aroka Autowell Gamma System ARC-251). Preparation of crude receptor membrane samples (ETB) from rat brain and assay of ^125 I endothelin-1:
Rat brain tissue was minced, and a crude receptor membrane sample was prepared in a manner similar to that used in the aforementioned case of porcine thoracic aorta. Also, ^125 I-endothelin-1 assay was performed in the same manner as described above.

IC50 (ETA) [nM] | IC50 (ETB) [nM] | Structure (SMILES)
63 | 0.86 | COc1ccccc1Oc1c(NS(=O)(=O)c2ccc(C(C)(C)C)cc2)nc(N2CCOCC2)nc1OCCC(=O)Nc1ccccc1C(C)C [Example 2, N-(2-isopropylphenyl)-3-[6-(4-t-butylphenylsulfonylamino)-5-(2-methoxyphenoxy)-2-morpholino-4-pyrimidinyloxy]propionamide]
32 | 29 | COc1ccccc1Oc1c(NS(=O)(=O)c2ccc(C(C)(C)C)cc2)nc(N2CCOCC2)nc1OCCC(=O)Nc1ccccn1 [Example 3, N-(2-pyridyl)-3-[6-(4-t-butylphenylsulfonylamino)-5-(2-methoxyphenoxy)-2-morpholino-4-pyrimidinyloxy]propionamide]
68 | 5.4 | COc1ccccc1Oc1c(NS(=O)(=O)c2ccc(C(C)(C)C)cc2)nc(N2CCN(C=O)CC2)nc1OCCC(=O)Nc1ccccc1C(C)C [Example 13, N-(2-isopropylphenyl)-3-[6-(4-t-butylphenylsulfonylamino)-2-(4-formylpiperazinyl)-5-(2-methoxyphenoxy)-4-pyrimidinyloxy]-propionamide]
240 | 5.1 | COc1ccccc1Oc1c(NS(=O)(=O)c2ccc(C(C)(C)C)cc2)nc(N2CCOCC2)nc1OCCC(=O)OCc1ccccc1 [Example 23, benzyl 3-[6-(4-t-butylphenylsulfonylamino)-5-(2-methoxyphenoxy)-2-morpholino-4-pyrimidinyloxy]propionate]
